In patent US20240308960A1 (Sumitomo Pharma Co., Ltd., priority 2021, published 2024):

molecular target: T1, Human orexin receptor type 2 (Homo sapiens, UniProt O43614); test: Test Example 1: agonist activity for orexin receptor type 2 (aequorin luminescence, intracellular calcium mobilization); settings: compound 10 μm; CHO cells transiently expressing human orexin receptor type 2 and apoaequorin; relative percentage of luminescence for the luminescence (100%) of Orexin A (100 μM)
T1 sequence (O43614 1-444): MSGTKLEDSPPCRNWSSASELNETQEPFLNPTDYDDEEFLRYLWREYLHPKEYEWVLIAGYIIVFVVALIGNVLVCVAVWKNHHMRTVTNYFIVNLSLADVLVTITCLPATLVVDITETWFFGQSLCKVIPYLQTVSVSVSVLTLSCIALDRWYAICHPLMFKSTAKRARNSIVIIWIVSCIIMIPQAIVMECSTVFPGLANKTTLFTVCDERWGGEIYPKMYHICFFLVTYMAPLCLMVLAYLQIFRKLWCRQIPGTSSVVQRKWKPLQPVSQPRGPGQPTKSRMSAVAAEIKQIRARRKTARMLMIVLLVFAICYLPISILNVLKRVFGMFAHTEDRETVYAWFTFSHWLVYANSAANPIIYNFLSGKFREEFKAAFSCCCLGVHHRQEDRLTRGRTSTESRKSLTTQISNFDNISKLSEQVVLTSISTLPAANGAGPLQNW

Agonist Activity (%)	SMILES
131%	CC(C)N1CCN(c2cccc(F)c2NC(=O)N2CCC(C)(c3noc(C4CC(F)(F)C4)n3)CC2)CC1 [Example 75, 4-[5-(3,3-difluorocyclobutyl)-1,2,4-oxadiazol-3-yl]-N-{2-fluoro-6-[4-(propan-2-yl)piperazin-1-yl]phenyl}-4-methylpiperidine-1-carboxamide]
148%	CC(C)N1CCN(c2cccc(Cl)c2NC(=O)N2CCC(C)(c3noc(C4CC(F)(F)C4)n3)CC2)CC1 [Example 76, N-{2-chloro-6-[4-(propan-2-yl)piperazin-1-yl]phenyl}-4-[5-(3,3-difluorocyclobutyl)-1,2,4-oxadiazol-3-yl]-4-methylpiperidine-1-carboxamide]
158%	Cc1ccc(C2(C)CCN(C(=O)Nc3c(Cl)cccc3N3CCN(C(C)C)CC3)CC2)cc1 [Example 77, N-{2-chloro-6-[4-(propan-2-yl)piperazin-1-yl]phenyl}-4-methyl-4-(4-methylphenyl)piperidine-1-carboxamide]
170%	CC(C)N1CCN(c2cccc(Cl)c2NC(=O)N2CCC(C)(c3noc(C4CCC4)n3)CC2)CC1 [Example 78, N-{2-chloro-6-[4-(propan-2-yl)piperazin-1-yl]phenyl}-4-(5-cyclobutyl-1,2,4-oxadiazol-3-yl)-4-methylpiperidine-1-carboxamide]
156%	CC(C)N1CCN(c2cccc(F)c2NC(=O)N2CCC(C)(c3noc(C4(C)CC4)n3)CC2)CC1 [Example 79, N-{2-fluoro-6-[4-(propan-2-yl)piperazin-1-yl]phenyl}-4-methyl-4-[5-(1-methylcyclopropyl)-1,2,4-oxadiazol-3-yl]piperidine-1-carboxamide]
157%	CC(C)N1CCN(c2cccc(Cl)c2NC(=O)N2CCC(C)(c3noc(C4(C)CC4)n3)CC2)CC1 [Example 80, N-{2-chloro-6-[4-(propan-2-yl)piperazin-1-yl]phenyl}-4-methyl-4-[5-(1-methylcyclopropyl)-1,2,4-oxadiazol-3-yl]piperidine-1-carboxamide]
145%	Cc1nc(C2(C)CCN(C(=O)Nc3c(Cl)cccc3N3CCN(C(C)C)CC3)CC2)no1 [Example 81, N-{2-chloro-6-[4-(propan-2-yl)piperazin-1-yl]phenyl}-4-methyl-4-(5-methyl-1,2,4-oxadiazol-3-yl)piperidine-1-carboxamide]
156%	CCc1nc(C2(C)CCN(C(=O)Nc3c(F)cccc3N3CCN(C(C)C)CC3)CC2)no1 [Example 82, 4-(5-ethyl-1,2,4-oxadiazol-3-yl)-N-{2-fluoro-6-[4-(propan-2-yl)piperazin-1-yl]phenyl}-4-methylpiperidine-1-carboxamide]
146%	CCc1nc(C2(C)CCN(C(=O)Nc3c(Cl)cccc3N3CCN(C(C)C)CC3)CC2)no1 [Example 83, N-{2-chloro-6-[4-(propan-2-yl)piperazin-1-yl]phenyl}-4-(5-ethyl-1,2,4-oxadiazol-3-yl)-4-methylpiperidine-1-carboxamide]
110%	Cc1cc(C2(C)CCN(C(=O)Nc3c(Cl)cccc3N3CCN(C(C)C)CC3)CC2)no1 [Example 84, N-{2-chloro-6-[4-(propan-2-yl)piperazin-1-yl]phenyl}-4-methyl-4-(5-methyl-1,2-oxazol-3-yl)piperidine-1-carboxamide]
145%	Cc1cc(C2(C)CCN(C(=O)Nc3c(F)cccc3N3CCN(C(C)C)CC3)CC2)no1 [Example 85, N-{2-fluoro-6-[4-(propan-2-yl)piperazin-1-yl]phenyl}-4-methyl-4-(5-methyl-1,2-oxazol-3-yl)piperidine-1-carboxamide]
138%	CC(C)N1CCN(c2cccc(Cl)c2NC(=O)N2CCC(C)(c3noc(C(F)(F)F)n3)CC2)CC1 [Example 86, N-{2-chloro-6-[4-(propan-2-yl)piperazin-1-yl]phenyl}-4-methyl-4-[5-(trifluoromethyl)-1,2,4-oxadiazol-3-yl]piperidine-1-carboxamide]
142%	CCC1(c2noc(C3CC3)n2)CCN(C(=O)Nc2c(F)cccc2N2CCN(C(C)C)CC2)CC1 [Example 87, 4-(5-cyclopropyl-1,2,4-oxadiazol-3-yl)-4-ethyl-N-{2-fluoro-6-[4-(propan-2-yl)piperazin-1-yl]phenyl}piperidine-1-carboxamide]
161%	CC(C)N1CCN(c2cccc(Br)c2NC(=O)N2CCC(C)(c3noc(C4CC4)n3)CC2)CC1 [Example 88, N-{2-bromo-6-[4-(propan-2-yl)piperazin-1-yl]phenyl}-4-(5-cyclopropyl-1,2,4-oxadiazol-3-yl)-4-methylpiperidine-1-carboxamide]
152%	CCC1(c2noc(C3CC3)n2)CCN(C(=O)Nc2c(Cl)cccc2N2CCN(C(C)C)CC2)CC1 [Example 89, N-{2-chloro-6-[4-(propan-2-yl)piperazin-1-yl]phenyl}-4-(5-cyclopropyl-1,2,4-oxadiazol-3-yl)-4-ethylpiperidine-1-carboxamide]
164%	Cc1onc(C2(C)CCN(C(=O)Nc3c(Cl)cccc3N3CCN(C(C)C)CC3)CC2)c1Cl [Example 90, 4-(4-chloro-5-methyl-1,2-oxazol-3-yl)-N-{2-chloro-6-[4-(propan-2-yl)piperazin-1-yl]phenyl}-4-methylpiperidine-1-carboxamide]
195%	CC(C)N1CCN(c2cccc(F)c2NC(=O)N2CCC(C)(C3CCCC3)CC2)CC1 [Example 91, 4-cyclopentyl-N-{2-fluoro-6-[4-(propan-2-yl)piperazin-1-yl]phenyl}-4-methylpiperidine-1-carboxamide]
196%	Cc1ncc(C2(C)CCN(C(=O)Nc3c(Cl)cccc3N3CCN(C(C)C)CC3)CC2)o1 [Example 92, N-{2-chloro-6-[4-(propan-2-yl)piperazin-1-yl]phenyl}-4-methyl-4-(2-methyl-1,3-oxazol-5-yl)piperidine-1-carboxamide]
203%	CC(C)c1ncc(C2(C)CCN(C(=O)Nc3c(Cl)cccc3N3CCN(C(C)C)CC3)CC2)o1 [Example 93, N-{2-chloro-6-[4-(propan-2-yl)piperazin-1-yl]phenyl}-4-methyl-4-[2-(propan-2-yl)-1,3-oxazol-5-yl]piperidine-1-carboxamide]
179%	CC(C)N1CCN(c2cccc(Cl)c2NC(=O)N2CCC(F)(c3noc(C4CC4)n3)CC2)CC1 [Example 94, N-{2-chloro-6-[4-(propan-2-yl)piperazin-1-yl]phenyl}-4-(5-cyclopropyl-1,2,4-oxadiazol-3-yl)-4-fluoropiperidine-1-carboxamide]
178%	CCc1nc(C2(F)CCN(C(=O)Nc3c(Cl)cccc3N3CCN(C(C)C)CC3)CC2)no1 [Example 95, N-{2-chloro-6-[4-(propan-2-yl)piperazin-1-yl]phenyl}-4-(5-ethyl-1,2,4-oxadiazol-3-yl)-4-fluoropiperidine-1-carboxamide]
160%	CC(C)N1CCN(c2cccc(Cl)c2NC(=O)N2CCC(C)(c3csc(C4CC4)n3)CC2)CC1 [Example 96, N-{2-chloro-6-[4-(propan-2-yl)piperazin-1-yl]phenyl}-4-(2-cyclopropyl-1,3-thiazol-4-yl)-4-methylpiperidine-1-carboxamide]
69%	CC(C)N1CCN(c2cccc(Cl)c2NC(=O)N2CCc3ccccc3CC2)CC1 [Example 97, N-{2-chloro-6-[4-(propan-2-yl)piperazin-1-yl]phenyl}-1,2,4,5-tetrahydro-3H-3-benzazepine-3-carboxamide]
165%	Cc1cnc(C2CCN(C(=O)Nc3c(Cl)cccc3N3CCN(C(C)C)CC3)CC2)nc1 [Example 98, N-{2-chloro-6-[4-(propan-2-yl)piperazin-1-yl]phenyl}-4-(5-methylpyrimidin-2-yl)piperidine-1-carboxamide]
75%	Cc1ccc(N2CCCN(C(=O)Nc3c(Cl)cccc3N3CCN(C(C)C)CC3)CC2)cc1 [Example 99, N-{2-chloro-6-[4-(propan-2-yl)piperazin-1-yl]phenyl}-4-(4-methylphenyl)-1,4-diazepane-1-carboxamide]
160%	CC1(c2noc(C3CC3)n2)CCN(C(=O)Nc2c(Cl)cccc2N2CCN(C(C)(C)C)CC2)CC1 [Example 100, N-[2-(4-tert-butylpiperazin-1-yl)-6-chlorophenyl]-4-(5-cyclopropyl-1,2,4-oxadiazol-3-yl)-4-methylpiperidine-1-carboxamide]
157%	CC(C)N1CCN(c2cccc(Cl)c2NC(=O)N2CCC(C)(c3ncc(C4CC4)s3)CC2)CC1 [Example 101, N-{2-chloro-6-[4-(propan-2-yl)piperazin-1-yl]phenyl}-4-(5-cyclopropyl-1,3-thiazol-2-yl)-4-methylpiperidine-1-carboxamide]
160%	CC(C)N1CCN(c2cccc(Cl)c2NC(=O)N2CCC(C)(c3nnc(C4CC4)s3)CC2)CC1 [Example 102, N-{2-chloro-6-[4-(propan-2-yl)piperazin-1-yl]phenyl}-4-(5-cyclopropyl-1,3,4-thiadiazol-2-yl)-4-methylpiperidine-1-carboxamide]
178%	CC(C)N1CCN(c2cccc(Cl)c2NC(=O)N2CCC(C)(c3noc(C4CC4)c3Cl)CC2)CC1 [Example 103, 4-(4-chloro-5-cyclopropyl-1,2-oxazol-3-yl)-N-{2-chloro-6-[4-(propan-2-yl)piperazin-1-yl]phenyl}-4-methylpiperidine-1-carboxamide]
